Laboratory results taken from ChEMBL document CHEMBL1201862, “PubChem BioAssay data set” (2004).
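How tested: cells in 96-well plates exposed to compound for 48 hours at five concentrations. The concentration for 50% growth inhibition is given as GI50.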 The source made the active and inactive calls. Rule as the data show it: active = GI50 up to about 1.1 µM and inactive = higher.

Key:
Experiment in all cases: DTP human tumour cell line panel, 48 h
A549 = tested on: A549
CCRF-CEM = tested on: CCRF-CEM
COLO 205 = tested on: COLO 205
HL-60 = tested on: HL-60
HOP-62 = tested on: HOP-62
HT-29 = tested on: HT-29
K562 = tested on: K562
NCI-H460 = tested on: NCI-H460
NCI-H522 = tested on: NCI-H522
OVCAR-5 = tested on: OVCAR-5
SK-MEL-2 = tested on: SK-MEL-2
SN12C = tested on: SN12C
SNB-19 = tested on: SNB-19
UO-31 = tested on: UO-31
RPMI-8226 = tested on: RPMI-8226
RXF 393 = tested on: RXF 393

SMILES | GI50 (A549) | GI50 (CCRF-CEM) | GI50 (COLO 205) | GI50 (HL-60) | GI50 (HOP-62) | GI50 (HT-29) | GI50 (K562) | GI50 (NCI-H460) | GI50 (NCI-H522) | GI50 (OVCAR-5) | GI50 (SK-MEL-2) | GI50 (SN12C) | GI50 (SNB-19) | GI50 (UO-31) | GI50 (RPMI-8226) | GI50 (RXF 393)
Oc1ncnc2c1sc(=S)n2-c1ccccc1 | > 100 µM (inactive) | > 100 µM (inactive) | > 100 µM (inactive) | > 100 µM (inactive) | > 100 µM (inactive) | > 100 µM (inactive) | > 100 µM (inactive) | > 100 µM (inactive) | > 100 µM (inactive) | > 100 µM (inactive) | > 100 µM (inactive) | > 100 µM (inactive) | > 100 µM (inactive) | 74.6 µM (inactive) | – | –
CN(C)CCCNc1ccc2ncn3c4ccccc4c(=O)c1c23 | – | 4.39 µM (inactive) | 2.49 µM (inactive) | 6.41 µM (inactive) | 33.6 µM (inactive) | 4.88 µM (inactive) | 3.77 µM (inactive) | 3.43 µM (inactive) | 6.17 µM (inactive) | 10.7 µM (inactive) | 13.6 µM (inactive) | 11.5 µM (inactive) | 20.3 µM (inactive) | 9.27 µM (inactive) | 4.71 µM (inactive) | –
CC1=C(O)/C(=C/C(C)CCC/C(C)=C/C=C/C(C)CCCc2ccoc2)OC1=O (configuration not stated) | 27.2 µM (inactive) | – | 35.3 µM (inactive) | 24.7 µM (inactive) | 18.5 µM (inactive) | 45.4 µM (inactive) | – | 30.3 µM (inactive) | 37.2 µM (inactive) | 23.8 µM (inactive) | 25.5 µM (inactive) | 35.3 µM (inactive) | – | 69.2 µM (inactive) | – | 24.7 µM (inactive)
CC(C)(C)/N=C\N1CCC(C(c2ccccc2)c2ccccc2)CC1 | 98.4 µM (inactive) | – | 19.1 µM (inactive) | – | > 100 µM (inactive) | 21.6 µM (inactive) | 35.1 µM (inactive) | 87.7 µM (inactive) | – | 54.2 µM (inactive) | > 100 µM (inactive) | 78.3 µM (inactive) | > 100 µM (inactive) | – | 45.2 µM (inactive) | 22.9 µM (inactive)
O=C(c1ccccc1)c1cn(/N=C\c2ccccc2)c(=O)nc1-c1ccccc1 | > 100 µM (inactive) | 70 µM (inactive) | > 100 µM (inactive) | – | > 100 µM (inactive) | > 100 µM (inactive) | > 100 µM (inactive) | > 100 µM (inactive) | > 100 µM (inactive) | > 100 µM (inactive) | > 100 µM (inactive) | > 100 µM (inactive) | > 100 µM (inactive) | > 100 µM (inactive) | – | > 100 µM (inactive)
CC1c2[nH]c3ccccc3c2CCN1O (configuration not stated) | > 100 µM (inactive) | > 100 µM (inactive) | > 100 µM (inactive) | > 100 µM (inactive) | – | > 100 µM (inactive) | > 100 µM (inactive) | – | > 100 µM (inactive) | > 100 µM (inactive) | > 100 µM (inactive) | > 100 µM (inactive) | > 100 µM (inactive) | 29.4 µM (inactive) | > 100 µM (inactive) | > 100 µM (inactive)
CN(C)c1n/c(=N/c2ccc3c(c2)OCO3)ss1 | 44.6 µM (inactive) | 32.5 µM (inactive) | – | 19 µM (inactive) | > 100 µM (inactive) | 38.5 µM (inactive) | 34.8 µM (inactive) | 47.4 µM (inactive) | 26.7 µM (inactive) | > 100 µM (inactive) | > 100 µM (inactive) | 73.6 µM (inactive) | 74.5 µM (inactive) | 27.2 µM (inactive) | 19.3 µM (inactive) | 96.4 µM (inactive)
C=C1CCC2C(C)(CO)C(O)CCC2(C)C1C/C=C1/CCOC1=O (configuration not stated) | > 100 µM (inactive) | > 100 µM (inactive) | > 100 µM (inactive) | > 100 µM (inactive) | > 100 µM (inactive) | > 100 µM (inactive) | > 100 µM (inactive) | > 100 µM (inactive) | 31.3 µM (inactive) | > 100 µM (inactive) | > 100 µM (inactive) | > 100 µM (inactive) | > 100 µM (inactive) | > 100 µM (inactive) | > 100 µM (inactive) | –
NC(=O)C12CCC1C1CCCCC12N1CCOCC1 (configuration not stated) | > 100 µM (inactive) | > 100 µM (inactive) | – | > 100 µM (inactive) | > 100 µM (inactive) | > 100 µM (inactive) | > 100 µM (inactive) | > 100 µM (inactive) | > 100 µM (inactive) | > 100 µM (inactive) | > 100 µM (inactive) | > 100 µM (inactive) | > 100 µM (inactive) | > 100 µM (inactive) | > 100 µM (inactive) | > 100 µM (inactive)
CCCCCCCCCCCCCCC(C)CCC(=O)O (configuration not stated) | > 100 µM (inactive) | – | 44 µM (inactive) | – | > 100 µM (inactive) | 34.5 µM (inactive) | – | 31.9 µM (inactive) | – | > 100 µM (inactive) | 60 µM (inactive) | > 100 µM (inactive) | > 100 µM (inactive) | – | – | > 100 µM (inactive)
Cc1ccc(NC(=O)CC2C(=O)Nc3ccccc3[S+]2[O-])cc1C (configuration not stated) | > 100 µM (inactive) | > 100 µM (inactive) | – | 41.7 µM (inactive) | – | > 100 µM (inactive) | 91.8 µM (inactive) | > 100 µM (inactive) | 32.1 µM (inactive) | > 100 µM (inactive) | > 100 µM (inactive) | > 100 µM (inactive) | 46 µM (inactive) | 42.1 µM (inactive) | 29 µM (inactive) | 22 µM (inactive)
COC(=O)C1Cc2c(n(C)c3ccccc23)C(c2ccccc2)N1 (configuration not stated) | > 100 µM (inactive) | 52.1 µM (inactive) | 23 µM (inactive) | 10.1 µM (inactive) | – | 18.9 µM (inactive) | 47.6 µM (inactive) | 60.5 µM (inactive) | 16.9 µM (inactive) | > 100 µM (inactive) | 47.6 µM (inactive) | > 100 µM (inactive) | > 100 µM (inactive) | > 100 µM (inactive) | 63.7 µM (inactive) | –
CCCNc1ncnc2c1cnn2C | > 100 µM (inactive) | > 100 µM (inactive) | > 100 µM (inactive) | > 100 µM (inactive) | > 100 µM (inactive) | > 100 µM (inactive) | > 100 µM (inactive) | > 100 µM (inactive) | > 100 µM (inactive) | > 100 µM (inactive) | > 100 µM (inactive) | > 100 µM (inactive) | > 100 µM (inactive) | – | > 100 µM (inactive) | –
Cn1cnnc1Sc1c([N+](=O)[O-])nc(-c2ccc([N+](=O)[O-])cc2)n1C | > 100 µM (inactive) | 10.3 µM (inactive) | 14.9 µM (inactive) | – | > 100 µM (inactive) | 18.4 µM (inactive) | 18 µM (inactive) | 36.1 µM (inactive) | 6.1 µM (inactive) | 27.7 µM (inactive) | 15.1 µM (inactive) | 16.1 µM (inactive) | > 100 µM (inactive) | 14.7 µM (inactive) | 16.1 µM (inactive) | –
O/N=C1/C(=C/c2ccc3c(c2)OCO3)CCCC1C(NO)c1ccc2c(c1)OCO2 (configuration not stated) | 29.9 µM (inactive) | 19.2 µM (inactive) | 25.4 µM (inactive) | 15.9 µM (inactive) | 21.1 µM (inactive) | 16.7 µM (inactive) | 24.9 µM (inactive) | 29.4 µM (inactive) | 17.7 µM (inactive) | – | 21.4 µM (inactive) | 21.3 µM (inactive) | 32.4 µM (inactive) | 23.4 µM (inactive) | 18.8 µM (inactive) | 23.6 µM (inactive)
CCN(CC)[C@@H]1c2cc3c(cc2C(c2cc(OC)c(O)c(OC)c2)C2C(=O)CO[C@@H]21)OCO3 (some centres not stated) | > 100 µM (inactive) | > 100 µM (inactive) | > 100 µM (inactive) | > 100 µM (inactive) | > 100 µM (inactive) | > 100 µM (inactive) | > 100 µM (inactive) | > 100 µM (inactive) | > 100 µM (inactive) | > 100 µM (inactive) | > 100 µM (inactive) | > 100 µM (inactive) | – | > 100 µM (inactive) | > 100 µM (inactive) | 65.5 µM (inactive)
CC1C[C@H](C)CC(C(O)CC2CC(=O)N(Cc3ccccc3)C(=O)C2)C1O (some centres not stated) | > 100 µM (inactive) | > 100 µM (inactive) | > 100 µM (inactive) | > 100 µM (inactive) | > 100 µM (inactive) | > 100 µM (inactive) | > 100 µM (inactive) | > 100 µM (inactive) | > 100 µM (inactive) | > 100 µM (inactive) | – | > 100 µM (inactive) | > 100 µM (inactive) | > 100 µM (inactive) | > 100 µM (inactive) | > 100 µM (inactive)
O=C(O)CN(c1ccccc1)S(=O)(=O)c1cccc([N+](=O)[O-])c1 | > 100 µM (inactive) | > 100 µM (inactive) | > 100 µM (inactive) | > 100 µM (inactive) | – | > 100 µM (inactive) | > 100 µM (inactive) | > 100 µM (inactive) | > 100 µM (inactive) | > 100 µM (inactive) | > 100 µM (inactive) | > 100 µM (inactive) | > 100 µM (inactive) | > 100 µM (inactive) | > 100 µM (inactive) | > 100 µM (inactive)
C=C1CC[C@@H]2C(C)(C)CCC[C@@]2(C)[C@@H]1Cc1cc(O)ccc1O | 5.36 µM (inactive) | 0.558 µM (active) | 15.9 µM (inactive) | 1.53 µM (inactive) | 9.59 µM (inactive) | 16.5 µM (inactive) | 3.44 µM (inactive) | 14 µM (inactive) | 1.84 µM (inactive) | 15.1 µM (inactive) | 2.04 µM (inactive) | 4.27 µM (inactive) | 6.24 µM (inactive) | 2.52 µM (inactive) | 3.14 µM (inactive) | 1.67 µM (inactive)
